Measurements reported in patent US5519018A, “Substituted phenols and their use for the treatment of disorders caused by cell proliferation” (Behringwerke Aktiengesellschaft, priority 1992, dated 1996).
Read-outs that look alike come from different tables or passages of the source.

Columns and labels:
[1] = tested on: cAMP-dependent protein kinase (PKA); assay: Test for 3',5'-cAMP-dependent protein kinase inhibition (PKA catalytic subunit, Kemptide substrate); type: biochemical; settings: 40 μM ATP, 15' at 30° C.
Description: Test for 3',5'-cAMP-dependent protein kinase inhibition
The catalytic subunit of the cAMP-dependent protein kinase (PKA) (Sigma) was reconstituted as described by Sigma (Sigma Chemical Co., St. Louis, Mo. USA). The enzyme activity was measured using Kemptide (Sigma) (Leu-Arg-Arg-Ala-Ser-Leu-Gly) as a substrate. […] The reaction was initiated by addition of gamma-^32 P ATP (40 μM) After 15'at 30° C., an aliquot part was added to p81 ion exchanger (2×2 cm; Whatman Paper Ltd., Great Britain), immersed in 75 mM H3 PO4, washed, dried, and the incorporation of ^32 P was determined by means of a liquid scintillation counter.

[2] = molecular target: T1, EGF receptor tyrosine kinase (EGFRTK) (Homo sapiens, UniProt P00533); assay: biochemical
T1 construct: This cell line expresses a large number of EGF receptors which have tyrosine kinase activity on the cell surface; endogenous in cells; host or cells: A 431 (ATCC CRL 1555), membrane preparation
Description: Test for EGF receptor tyrosine kinase inhibition
This cell line expresses a large number of EGF receptors which have tyrosine kinase activity on the cell surface. The cells were cultured almost to confluence, washed with PBS (phosphate buffered saline, pH 7.2), scraped off the culture flask and incubated at 4° C. for 1 h, subjected to 20 strokes in a Potter and centrifuged at 1000 g for 30'. The supernatant was centrifuged at 20000 g for a further 20 min and the pellet was taken up in 100 μl per 1×10^6 cells as the membrane preparation.
The tyrosine kinase activity of the EGF receptor (EGFRTK) was measured using poly(Glu, Ala, Tyr), 6:3:1, as the substrate. […] After 15'at 30° C., the substrate was precipitated with 10% TCA (trichloroacetic acid), filtered on a millititer filtration plate (Millipore Corporation, Massachusetts, USA), washed and dried. The incorporation of ^32 P was determined by means of a liquid scintillation counter.

hela cells = assay: Test for inhibition of EGF-stimulated proliferation of tumor cells (hela, MTT); type: cell-based; settings: 65 h; for inhibition at 5 µg/mL / inhibition at 25 µg/mL / inhibition at 1 µg/mL / inhibition at 0.2 µg/mL: Homo sapiens; for inhibition at 5 µg/mL: read-out: EGF stimulation % inhibition at 5 μg/ml; for inhibition at 25 µg/mL: read-out: EGF stimulation % inhibition at 25 μg/ml; for inhibition at 1 µg/mL: read-out: EGF stimulation % inhibition at 1 μg/ml; for inhibition at 0.2 µg/mL: read-out: EGF stimulation % inhibition at 0.2 μg/ml
Description: Test for inhibition of EGF- or bFGF-stimulated proliferation of tumor cells
2×10^3 hela cells per well were inoculated into a 96-well microtiter plate (in RPMI+1% FCS ). After 24 h, the medium was changed to RPMI+0.5% FCS and various concentrations of the test substance±EGF (0.1 nM)/bFGF (1 ng/ml) were added. Each group consisted of 4 wells; the control was only incubated±growth factor. After 65 h, 50 μof MTT (2.5 mg/ml in PBS) were added and the supernatant was removed after 7 h. The colored substance formed by the living cells was dissolved by addition of 100 μl of DMSO/well. The absorption was measured at 492 nm for each well with the aid of a 340 CC Multiscan photometer (Flow).
The mean value is formed from the 4 wells of a group and the absorption difference between the controls± growth factor (A) and between the groups with test substance± growth factor (B) is determined.

[3] = A 431 membranes, 1000 nM EGF, 32 μM ATP, 15' at 30° C., max. 51 μg/ml, read-out: EGFRTK IC50 (converted)
[4] = 5 μg/ml, hela cells, EGF 0.1 nM, tox = toxic
[5] = 1 μg/ml, hela cells, EGF 0.1 nM, tox = toxic
[6] = 25 μg/ml, hela cells, EGF 0.1 nM, tox = toxic

T1 sequence (P00533 25-1210): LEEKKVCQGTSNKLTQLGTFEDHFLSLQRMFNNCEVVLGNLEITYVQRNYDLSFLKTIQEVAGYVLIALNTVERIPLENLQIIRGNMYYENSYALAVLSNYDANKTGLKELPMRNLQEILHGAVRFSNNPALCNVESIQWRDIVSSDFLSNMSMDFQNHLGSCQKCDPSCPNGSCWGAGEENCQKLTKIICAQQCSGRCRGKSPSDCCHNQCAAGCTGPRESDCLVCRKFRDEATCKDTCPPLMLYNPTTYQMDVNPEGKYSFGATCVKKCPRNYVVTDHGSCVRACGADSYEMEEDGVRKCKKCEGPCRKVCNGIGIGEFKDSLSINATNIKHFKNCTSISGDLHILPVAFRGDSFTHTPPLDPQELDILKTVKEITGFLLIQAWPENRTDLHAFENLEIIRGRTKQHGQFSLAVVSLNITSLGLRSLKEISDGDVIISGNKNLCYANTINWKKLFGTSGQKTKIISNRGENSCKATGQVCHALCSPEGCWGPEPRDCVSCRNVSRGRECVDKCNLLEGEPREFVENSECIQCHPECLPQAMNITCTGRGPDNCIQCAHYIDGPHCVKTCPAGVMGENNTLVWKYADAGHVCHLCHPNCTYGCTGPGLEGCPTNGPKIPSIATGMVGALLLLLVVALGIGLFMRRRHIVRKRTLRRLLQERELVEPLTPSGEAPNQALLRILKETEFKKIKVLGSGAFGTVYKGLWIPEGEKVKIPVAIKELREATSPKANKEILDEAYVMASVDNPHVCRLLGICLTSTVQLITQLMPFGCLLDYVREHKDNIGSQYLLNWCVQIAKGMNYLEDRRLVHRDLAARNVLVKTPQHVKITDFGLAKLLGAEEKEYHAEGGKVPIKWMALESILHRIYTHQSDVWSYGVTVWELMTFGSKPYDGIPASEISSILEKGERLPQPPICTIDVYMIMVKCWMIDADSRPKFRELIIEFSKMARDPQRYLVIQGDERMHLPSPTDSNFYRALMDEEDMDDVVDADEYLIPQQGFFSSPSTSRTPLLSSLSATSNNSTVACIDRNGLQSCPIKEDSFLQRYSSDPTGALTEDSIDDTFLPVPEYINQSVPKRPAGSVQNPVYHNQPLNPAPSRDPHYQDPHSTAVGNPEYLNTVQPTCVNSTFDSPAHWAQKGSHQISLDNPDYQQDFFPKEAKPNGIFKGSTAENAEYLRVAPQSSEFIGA

SMILES	PKA % inhib. at 40 μg/ml [1] [%]	IC50 [2, 3] [µM]	EGF stimulation % inhibition at 25 μg/ml (hela cells; [6])	inhibition at 5 µg/mL (hela cells; [4]) [%]	also measured
O=S(=O)([O-])c1cc(O)ccc1O.[K+]	1	8.06			inhibition at 5 µg/mL (hela cells; HeLa): 6%; inhibition at 25 µg/mL (hela cells; HeLa): 14%
Oc1ccc(O)c(O)c1 [1,2,4-Trihydroxybenzene]	0	190			EGF stimulation % inhibition at 5 μg/ml (hela cells; [4]): tox; inhibition at 1 µg/mL (hela cells; HeLa): 5%
O=C1C=CC(=O)c2cc3ccccc3cc21 [1,4-Anthraquinone]		2.79			EGF stimulation % inhibition at 5 μg/ml (hela cells; [4]): tox; inhibition at 1 µg/mL (hela cells; [5]): 33%
Oc1ccc(O)c2ccccc12 [1,4-Naphthodiol]	76				IC50 [2]: 9.36 µM; EGF stimulation % inhibition at 1 μg/ml (hela cells; [5]): tox; inhibition at 0.2 µg/mL (hela cells; HeLa): 29%
Cc1c(O)ccc(O)c1C [2,3-Dimethylhydroquinone]	71	4.64	tox	17	
Oc1ccc(N=Cc2cc(O)ccc2O)cc1 [2,5-Dihydroxy-N-(4'-hydroxyphenyl)benzaldimine]		55.1	tox	39	
Oc1ccc(O)c(C=Nc2ccccc2)c1 [2,5-Dihydroxy-N-phenylbenzaldimine]		89.3	tox	24	
O=C1C=CC(=O)C(Cl)=C1 [2-Chlorobenzoquinone]	29		tox		IC50 [2]: 9.68 µM; inhibition at 5 µg/mL (hela cells; HeLa): 29%
Oc1ccc(O)c(Cl)c1 [2-Chlorohydroquinone]	0		tox	46	IC50 [2]: 13.1 µM
Cc1cc(O)ccc1O [2-Methylhydroquinone]	46	8.86		66	inhibition at 1 µg/mL (hela cells; [5]): 21%
Oc1ccc(O)c(-c2ccccc2)c1 [2-Phenylhydroquinone]	25	5.53		66	inhibition at 1 µg/mL (hela cells; [5]): 11%
CC(C)(C)c1cc(O)ccc1O [2-tert-Butylhydroquinone]	22	5.72			inhibition at 1 µg/mL (hela cells; HeLa): 21%; inhibition at 5 µg/mL (hela cells; HeLa): 52%
O=C(O)c1cccc(N=Cc2cc(O)ccc2O)c1 [3-[-(2',5'-Dihydroxybenzylidene)amino]benzoic acid]	0	77.9	tox	44	
O=C(O)c1ccc(NCc2cc(O)ccc2O)cc1 [4-[N-(2',5'-Dihydroxybenzyl)amino]benzoic acid]	61	17.8	tox	36	
O=C(O)c1cc(N=Cc2cc(O)ccc2O)ccc1O [5-[N-(2',5'-Dihydroxybenzylidene)amino]-2-hydroxybenzoic acid]	0	27.3	tox	51	
O=C1C=CC(=O)C=C1 [Benzoquinone]	45			55	IC50 [2]: 0.463 µM; inhibition at 1 µg/mL (hela cells; [5]): 36%
O=C(O)c1ccc(N=Cc2cc(O)ccc2O)cc1 [Ex. 1, 4-[N-(2',5'-Dihydroxybenzylidene)amino]benzoic acid]	0	67.5	tox	48	
CN=Cc1cc(O)ccc1O [Ex. 2, 2,5-Dihydroxy-N-methylbenzaldimine]	0	13.1	tox	21	

SMILES	PKA % inhib. at 40 μg/ml [1] [%]	IC50 [2, 3] [µM]	EGF stimulation % inhibition at 25 μg/ml (hela cells; [6])	inhibition at 5 µg/mL (hela cells; [4]) [%]	also measured
Oc1ccc(O)c(C=NCc2ccccc2)c1 [Ex. 3, N-Benzyl-2,5-dihydroxybenzaldimine]	0	7.48	tox	28	
CN(C)N=Cc1cc(O)ccc1O [Ex. 4, 2,5-Dihydroxy-N,N-dimethylbenzaldehyde hydrazone]	63	7.66	tox	46	
COC(=O)[C@H](Cc1c[nH]cn1)N=Cc1cc(O)ccc1O [Ex. 5, (S)-α-N-(2,5-Dihydroxybenzylidene)histidine methyl ester]	0				IC50 [2]: 43.7 µM; inhibition at 5 µg/mL (hela cells; HeLa): 10%; inhibition at 25 µg/mL (hela cells; HeLa): 44%
CCCCCCN=Cc1cc(O)ccc1O [Ex. 6, N-Hexyl-2,5-dihydroxybenzaldimine]	0	95.6	tox	18	
CCN=Cc1cc(O)ccc1O [Ex. 7, N-Ethyl-2,5-hydroxybenzaldimine]	0	74.2	tox	28	
CC(C)N=Cc1cc(O)ccc1O [Ex. 8, 2,5-Dihydroxy-N-isopropylbenzaldimine]	0	46.3	tox	28	
Oc1ccc(O)c(C=NN2CCCCC2)c1 [Ex. 10, 2,5-Dihydroxy-N-piperidinobenzaldimine]	0	47.7			
Oc1ccc(O)c(C=NN2CCOCC2)c1 [Ex. 11, 2,5-Dihydroxy-N-morpholinobenzaldimine]	0	12.5	tox	17	
CN1CCN(N=Cc2cc(O)ccc2O)CC1 [Ex. 12, 2,5-Dihydroxy-N-(4'-methylpiperazino)benzaldimine]	0	2.38	tox	21	
O=Cc1cc(O)ccc1O [Gentisaldehyde]		145 to 217		16	inhibition at 1 µg/mL (hela cells; [5]): 0%
Oc1ccc(O)cc1 [Hydroquinone]		0.908			inhibition at 1 µg/mL (hela cells; HeLa): 29%; inhibition at 5 µg/mL (hela cells; HeLa): 43%
Cc1cc(O)c2ccccc2c1O [Menadiol]	0	150			
Oc1ccc(O)c(C=NC2CCCCC2)c1 [N-Cyclohexyl-2,5-dihydroxybenzaldimine]	61	44.7		39	inhibition at 25 µg/mL (hela cells; [6]): 64%
Oc1ccc(O)c(C=NN2CCCCCC2)c1 [N-Homopiperidino-2,5-dihydroxybenzaldimine]	0	17.4			EGF stimulation % inhibition at 5 μg/ml (hela cells; [4]): tox
O=C1C=CC(=O)c2ccccc21 [Naphthoquinone]					IC50 [2]: 1.26 µM; inhibition at 0.2 µg/mL (hela cells; 0.2 μg/ml, hela cells, EGF 0.1 nM): 11%
Oc1ccccc1O [Pyrocatechol]	0				IC50 [2]: 14.5 µM; inhibition at 0.2 µg/mL (hela cells; HeLa): 16%; inhibition at 1 µg/mL (hela cells; HeLa): 35%
O=C1C=CC(=O)C=C1.Oc1ccc(O)cc1 [Quinhydrone]	0				EGFRTK IC50 ([2]; A 431 membranes, 1000 nM EGF, 32 μM ATP, 15' at 30° C., max. 51 μg/ml): 0.126 µg/mL; EGF stimulation % inhibition at 1 μg/ml (hela cells; [5]): 12%; EGF stimulation % inhibition at 5 μg/ml (hela cells; [4]): 64%
